Measurements: patent publication US12606520B2, “Calpain-2 inhibitor compounds and methods of treatment” (WESTERN UNIVERSITY OF HEALTH SCIENCES, priority 2020, dated 2026)

Columns and labels:
[1] = Stability in mouse liver homogenate (residual inhibition of purified human calpain-2); type: in vitro ADME; settings: B-cyclodextrin formulation, read-out: Estimated half-life in mouse liver homogenate (converted)
Protocol: Aliquots were taken and the degree of inhibition of purified human calpain-2 was measured. Results were normalized to the maximum degree of inhibition (100%) measured at t0.

[2] = molecular target: T1, recombinant human calpain-2 (hcalpain-2) (Homo sapiens, UniProt P17655); assay: Inhibition of recombinant human calpain-2; type: biochemical
T1 sequence (P17655 1-700): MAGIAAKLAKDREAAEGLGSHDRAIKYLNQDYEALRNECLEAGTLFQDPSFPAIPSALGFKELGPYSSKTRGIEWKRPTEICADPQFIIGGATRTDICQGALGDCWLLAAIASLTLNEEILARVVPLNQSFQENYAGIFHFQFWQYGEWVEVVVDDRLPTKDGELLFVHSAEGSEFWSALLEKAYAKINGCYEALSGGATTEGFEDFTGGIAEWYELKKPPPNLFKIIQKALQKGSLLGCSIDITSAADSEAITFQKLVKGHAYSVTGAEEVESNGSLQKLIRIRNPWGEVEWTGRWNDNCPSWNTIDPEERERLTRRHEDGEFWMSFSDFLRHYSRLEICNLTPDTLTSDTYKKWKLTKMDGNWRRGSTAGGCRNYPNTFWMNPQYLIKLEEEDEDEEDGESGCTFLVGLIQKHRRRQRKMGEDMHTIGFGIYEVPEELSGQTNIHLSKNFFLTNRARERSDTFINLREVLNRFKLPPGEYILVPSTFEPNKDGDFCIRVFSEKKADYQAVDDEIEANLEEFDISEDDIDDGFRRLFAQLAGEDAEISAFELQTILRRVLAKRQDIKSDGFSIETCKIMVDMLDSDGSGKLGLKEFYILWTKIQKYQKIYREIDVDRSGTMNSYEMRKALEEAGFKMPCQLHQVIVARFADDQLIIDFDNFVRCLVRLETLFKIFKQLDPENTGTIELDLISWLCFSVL
T1 sequence (P04632 1-268 partner): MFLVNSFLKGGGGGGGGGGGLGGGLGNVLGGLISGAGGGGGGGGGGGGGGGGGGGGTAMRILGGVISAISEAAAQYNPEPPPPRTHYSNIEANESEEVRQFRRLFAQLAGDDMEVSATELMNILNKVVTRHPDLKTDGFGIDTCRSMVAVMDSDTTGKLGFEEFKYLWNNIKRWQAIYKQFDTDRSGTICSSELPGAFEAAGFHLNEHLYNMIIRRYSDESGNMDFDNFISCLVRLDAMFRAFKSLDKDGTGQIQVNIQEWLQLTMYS
Protocol: Various concentrations of NA112 in the liposomal formulation were incubated with human calpain-1 (purified from erythrocytes, ecalpain-1) or a recombinant human calpain-2 (hcalpain-2) and calpain activity assayed as in FIG. 1. IC50 were determined and transformed into Ki values (FIG. 10A, 10B). Values previously obtained with NA112 dissolved in DMSO are shown for comparison (FIG. 10B).
Cerebellar homogenates from wild-type (WT) or calpain-1 Knock-out (KO) mice were incubated with 20 μM calcium to activate calpain-1 or with 2 mM calcium to activate calpain-2, respectively, and increasing concentrations of NA184.
Like in NA112, there are 2 chiral centers in NA184. The inhibitory activity of the compounds NA184A (S-S isomer) and NA184B (S-R stereoisomer) against erythrocyte human calpain-1 (ecalpain-1) and recombinant human calpain-2 (hcalpain-2) were determined.

calpain-2 = molecular target: T2, calpain-2 (Rattus norvegicus, UniProt Q07009); assay: Calpain-2 activity in brain after TBI in rats; type: in vivo; settings: 1 mg/kg i.p. at 1 h and 8 h after TBI, 24 h after TBI
T2 construct: from tissue; host or cells: rat brain after TBI
T2 sequence (Q07009 1-700): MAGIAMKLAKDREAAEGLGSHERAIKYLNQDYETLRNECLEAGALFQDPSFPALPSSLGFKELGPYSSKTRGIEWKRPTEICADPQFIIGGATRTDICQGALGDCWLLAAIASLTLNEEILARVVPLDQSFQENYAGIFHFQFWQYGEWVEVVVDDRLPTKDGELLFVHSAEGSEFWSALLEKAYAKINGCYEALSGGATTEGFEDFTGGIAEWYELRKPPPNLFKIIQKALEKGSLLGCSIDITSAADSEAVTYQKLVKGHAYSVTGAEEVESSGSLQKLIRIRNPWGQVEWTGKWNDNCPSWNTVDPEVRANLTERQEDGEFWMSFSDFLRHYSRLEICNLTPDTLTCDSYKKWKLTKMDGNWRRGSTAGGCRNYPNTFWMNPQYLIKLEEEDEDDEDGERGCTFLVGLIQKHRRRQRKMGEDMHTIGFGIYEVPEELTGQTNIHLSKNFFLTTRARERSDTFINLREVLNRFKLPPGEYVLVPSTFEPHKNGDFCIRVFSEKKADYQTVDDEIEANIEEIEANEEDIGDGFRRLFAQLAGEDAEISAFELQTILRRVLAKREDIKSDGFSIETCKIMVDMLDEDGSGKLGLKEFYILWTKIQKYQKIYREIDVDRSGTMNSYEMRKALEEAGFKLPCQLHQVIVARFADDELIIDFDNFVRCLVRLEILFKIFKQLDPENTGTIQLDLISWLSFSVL
T2 sequence (Q64537 1-270 partner): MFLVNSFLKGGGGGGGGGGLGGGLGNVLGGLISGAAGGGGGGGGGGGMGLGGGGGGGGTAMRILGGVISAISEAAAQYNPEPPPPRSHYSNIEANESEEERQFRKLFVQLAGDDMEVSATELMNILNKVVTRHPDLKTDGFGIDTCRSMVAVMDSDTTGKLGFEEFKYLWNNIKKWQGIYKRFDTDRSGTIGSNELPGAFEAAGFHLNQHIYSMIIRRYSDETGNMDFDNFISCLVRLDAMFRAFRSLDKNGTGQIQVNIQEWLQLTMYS
Protocol: We also performed the same model of TBI in male and female mice and in male and female rats. In all cases, NA184 was injected i.p. at 1 mg/kg. For the rat experiments, NA184 was injected twice at 1 h and 8 h after TBI. Animals were sacrificed 24 h after TBI and calpain activity was assayed in brain and cell death was analyzed in cortex. […] In addition, there was a highly significant correlation between calpain-2 activity and cell death in rats (FIG. 23). R^2 was 0.61 and p<0.005.

Row | SMILES | half-life [1] [h] | IC50 [2] [µM] | Ki [2] [µM] | Calpain-2 inhibition in brain, male and female rats (calpain-2)
1 | CCC(NC(=O)[C@H](CC(C)C)NC(=O)NCc1ccccc1)C(=O)C(=O)NCc1cc(OC)cc(OC)c1 (mixture of isomers) [NA112, (2S)-2-(3-benzylureido)-N-(1-((3,5-dimethoxybenzyl)amino)-1,2-dioxopentan-3-yl)-4-methylpentanamide] | 15 | – | – | –
2 | CCC(NC(=O)[C@H](CC(C)C)NC(=O)NCc1ccccc1)C(=O)C(=O)NCc1cccc(Cl)c1OC (stereo partly drawn) [NA184, (2S)-2-(3-benzylureido)-N-(1-((3-chloro-2-methoxybenzyl)amino)-1,2-dioxopentan-3-yl)-4-methylpentanamide] | – | 0.085 | 0.054 | significantly inhibited calpain-2
